Among the data in patent US10995101B2, “2-oxo-thiazole derivatives as A2A inhibitors and compounds for use in the treatment of cancers” (iTeos Therapeutics SA, priority 2017, dated 2021) are IC50 and efflux ratio values, retold here.

One data set concerns the target A2A receptor (Homo sapiens, UniProt P29274). The data set can be described thus: Inhibition of cAMP production in HEK cells. The settings on record: HEK-293 cells with A2A receptor. The class given is cell-based. For orientation: Cyclic AMP is a second messenger, typically raised through Gs and lowered through Gi signalling.
A short description of the next data set: in vitro. The settings on record: human, Caco-2, pH 7.4.
Where [1] appears, read: IC50 (nM) (3 nM NECA as agonist, 0.1% BSA), 3 nM NECA as agonist, 0.1% BSA.
The mark [2] stands for this setting: IC50 (nM) (5 μM Adenosine as agonist, 2.0% HSA), 5 μM Adenosine as agonist, 2.0% HSA.

Sequence of A2A receptor (P29274 whole entry): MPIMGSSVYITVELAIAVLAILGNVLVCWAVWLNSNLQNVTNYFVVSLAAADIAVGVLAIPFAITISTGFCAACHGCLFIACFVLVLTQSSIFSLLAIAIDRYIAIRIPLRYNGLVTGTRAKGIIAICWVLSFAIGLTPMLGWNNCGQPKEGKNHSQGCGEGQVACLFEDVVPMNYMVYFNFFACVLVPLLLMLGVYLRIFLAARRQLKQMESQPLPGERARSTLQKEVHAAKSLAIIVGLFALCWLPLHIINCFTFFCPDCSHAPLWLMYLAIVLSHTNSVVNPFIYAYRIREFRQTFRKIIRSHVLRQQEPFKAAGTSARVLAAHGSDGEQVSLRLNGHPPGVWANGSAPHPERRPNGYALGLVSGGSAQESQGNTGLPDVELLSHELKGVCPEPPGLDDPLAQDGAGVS

Usually IC50 stands for the concentration needed to halve the response being measured. High values mean weaker potency, low ones greater potency. The efflux ratio is a quotient of directional permeabilities that is used to spot active efflux. Regarding `CS(=N)(=O)c1ccc(N2CCN(CCn3c(=O)sc4c3nc(N)n3nc(-c5ccco5)nc43)CC2)c(F)c1` (centres unmarked) [Compound 80, 5-amino-3-(2-(4-(2-fluoro-4-(S-methylsulfonimidoyl)phenyl)piperazin-1-yl)ethyl)-8-(furan-2-yl)thiazolo[5,4-e][1,2,4]triazolo[1,5-c]pyrimidin-2(3H)-one], the IC50 on A2A receptor (setting [1]) turned out to be 0.4 nM; at A2A receptor (setting [2]) it was 146 nM. Moreover, in the data set “in vitro”, the efflux ratio at 120 min, 2 μM is 149.
The like results for `Cc1cc(N2CCN(CCn3c(=O)sc4c3nc(N)n3nc(-c5ccco5)nc43)CC2)c(F)cn1` [Compound 82, 5-amino-3-(2-(4-(5-fluoro-2-methylpyridin-4-yl)piperazin-1-yl)ethyl)-8-(furan-2-yl)thiazolo[5,4-e][1,2,4]triazolo[1,5-c]pyrimidin-2(3H)-one] were, in that order, 0.2 nM, 15 nM and 3.
The like results for `Nc1nc2c(sc(=O)n2CCN2CCN(c3ccc(O[C@@H]4COC[C@H]4O)cc3F)CC2)c2nc(-c3ccco3)nn12` [Compound 83, 5-amino-3-(2-(4-(2-fluoro-4-(((3R,4R)-4-hydroxytetrahydrofuran-3-yl)oxy)phenyl)piperazin-1-yl)ethyl)-8-(furan-2-yl)thiazolo[5,4-e][1,2,4]triazolo[1,5-c]pyrimidin-2(3H)-one] were, in that order, 0.4 nM, 212 nM and 29.
The matching figures for `Nc1nc2c(sc(=O)n2CCN2CCN(c3ccc(O[C@H]4COC[C@@H]4O)cc3F)CC2)c2nc(-c3ccco3)nn12` [Compound 84, 5-amino-3-(2-(4-(2-fluoro-4-(((3S,4S)-4-hydroxytetrahydrofuran-3-yl)oxy)phenyl)piperazin-1-yl)ethyl)-8-(furan-2-yl)thiazolo[5,4-e][1,2,4]triazolo[1,5-c]pyrimidin-2(3H)-one]: 0.1 nM, 71 nM and 24.
Regarding `CC(C)(O)COc1ccc(N2CCN(CCn3c(=O)sc4c3nc(N)n3nc(-c5ccco5)nc43)CC2)c(F)c1` [Compound 85, 5-amino-3-(2-(4-(2-fluoro-4-(2-hydroxy-2-methylpropoxy)phenyl)piperazin-1-yl)ethyl)-8-(furan-2-yl)thiazolo[5,4-e][1,2,4]triazolo[1,5-c]pyrimidin-2(3H)-one], the IC50 at A2A receptor (setting [1]) stood at 0.4 nM; at A2A receptor (setting [2]) it was 220 nM. Moreover, the efflux ratio at 120 min, 2 μM in the data set “in vitro” came out at 5.
The like results for `CC(C)(O)c1ccc(N2CCN(CCn3c(=O)sc4c3nc(N)n3nc(-c5ccco5)nc43)CC2)c(F)c1` [Compound 86, 5-amino-3-(2-(4-(2-fluoro-4-(2-hydroxypropan-2-yl)phenyl)piperazin-1-yl)ethyl)-8-(furan-2-yl)thiazolo[5,4-e][1,2,4]triazolo[1,5-c]pyrimidin-2(3H)-one] were, in that order, 0.6 nM, 747 nM and 5.
Regarding `Nc1nc2c(sc(=O)n2CCN2CCN(c3ccc(OCC(O)C(F)(F)F)cc3F)CC2)c2nc(-c3ccco3)nn12` (centres unmarked) [Compound 87, 5-amino-3-(2-(4-(2-fluoro-4-(3,3,3-trifluoro-2-hydroxypropoxy)phenyl)piperazin-1-yl)ethyl)-8-(furan-2-yl)thiazolo[5,4-e][1,2,4]triazolo[1,5-c]pyrimidin-2(3H)-one], the IC50 was determined as 1.1 nM on A2A receptor (setting [1]) and 432 nM on A2A receptor (setting [2]). The efflux ratio at 120 min, 2 μM in “in vitro” amounted to 7.
The matching figures for `Nc1nc2c(sc(=O)n2CCN2CCN(c3cc(OCCO)ccc3F)CC2)c2nc(-c3ccco3)nn12` [Compound 88, 5-amino-3-(2-(4-(2-fluoro-5-(2-hydroxyethoxy)phenyl)piperazin-1-yl)ethyl)-8-(furan-2-yl)thiazolo[5,4-e][1,2,4]triazolo[1,5-c]pyrimidin-2(3H)-one]: 0.2 nM, 22 nM and 19.
The matching figures for `Nc1nc2c(sc(=O)n2CCN2CCN(c3cc(OCC4CNCCO4)c(F)cc3F)CC2)c2nc(-c3ccco3)nn12` (centres unmarked) [Compound 89, 5-amino-3-(2-(4-(2,4-difluoro-5-(morpholin-2-ylmethoxy)phenyl)piperazin-1-yl)ethyl)-8-(furan-2-yl)thiazolo[5,4-e][1,2,4]triazolo[1,5-c]pyrimidin-2(3H)-one]: 0.6 nM, 9 nM and 456.
The matching figures for `Nc1nc2c(sc(=O)n2CCN2CCN(c3cc(OCC4COCCN4)c(F)cc3F)CC2)c2nc(-c3ccco3)nn12` (centres unmarked) [Compound 90, 5-amino-3-(2-(4-(2,4-difluoro-5-(morpholin-3-ylmethoxy)phenyl)piperazin-1-yl)ethyl)-8-(furan-2-yl)thiazolo[5,4-e][1,2,4]triazolo[1,5-c]pyrimidin-2(3H)-one]: 5.7 nM, 24 nM and 86.
As to `Nc1nc2c(sc(=O)n2CCN2CCN(c3cc(O[C@H]4CCNC4=O)c(F)cc3F)CC2)c2nc(-c3ccco3)nn12` [Compound 95, (S)-5-amino-3-(2-(4-(2,4-difluoro-5-((2-oxopyrrolidin-3-yl)oxy)phenyl)piperazin-1-yl)ethyl)-8-(furan-2-yl)thiazolo[5,4-e][1,2,4]triazolo[1,5-c]pyrimidin-2(3H)-one], the IC50 on A2A receptor (setting [1]) came to 0.7 nM; at A2A receptor (setting [2]), 37 nM. Also, the efflux ratio at 120 min, 2 μM in the data set “in vitro” was 137.
For `Nc1nc2c(sc(=O)n2CCN2CCN(c3cc(O[C@@H]4CCNC4=O)c(F)cc3F)CC2)c2nc(-c3ccco3)nn12` [Compound 96, (R)-5-amino-3-(2-(4-(2,4-difluoro-5-((2-oxopyrrolidin-3-yl)oxy)phenyl)piperazin-1-yl)ethyl)-8-(furan-2-yl)thiazolo[5,4-e][1,2,4]triazolo[1,5-c]pyrimidin-2(3H)-one], the concentration for half-maximal inhibition (IC50) on A2A receptor (setting [1]) was 0.4 nM; at A2A receptor (setting [2]), 19 nM. Moreover, in the data set “in vitro”, the efflux ratio at 120 min, 2 μM stood at 118.
The like results for `Nc1nc2c(sc(=O)n2CCN2CCN(c3cc(C(=O)NCC4COCCN4)c(F)cc3F)CC2)c2nc(-c3ccco3)nn12` (centres unmarked) [Compound 98, 5-(4-(2-(5-amino-8-(furan-2-yl)-2-oxothiazolo[5,4-e][1,2,4]triazolo[1,5-c]pyrimidin-3(2H)-yl)ethyl)piperazin-1-yl)-2,4-difluoro-N-(morpholin-3-ylmethyl)benzamide] were, in that order, 0.1 nM, 7 nM and 53.
Consider `Nc1nc2c(sc(=O)n2CCN2CCN(c3ccc(OCC4COCCN4)cc3F)CC2)c2nc(-c3ccco3)nn12` (centres unmarked) [Compound 99, 5-amino-3-(2-(4-(2-fluoro-4-(morpholin-3-ylmethoxy)phenyl)piperazin-1-yl)ethyl)-8-(furan-2-yl)thiazolo[5,4-e][1,2,4]triazolo[1,5-c]pyrimidin-2(3H)-one], for which the figures for the 50% inhibitory concentration (IC50) at A2A receptor (setting [1]) and on A2A receptor (setting [2]) were 0.5 nM and 64 nM, respectively. Further, the efflux ratio at 120 min, 2 μM in the data set “in vitro” is 13.
The matching figures for `Nc1nc2c(sc(=O)n2CCN2CCN(c3ccc(OCC4CNCCO4)cc3F)CC2)c2nc(-c3ccco3)nn12` (centres unmarked) [Compound 100, 5-amino-3-(2-(4-(2-fluoro-4-(morpholin-2-ylmethoxy)phenyl)piperazin-1-yl)ethyl)-8-(furan-2-yl)thiazolo[5,4-e][1,2,4]triazolo[1,5-c]pyrimidin-2(3H)-one]: 0.1 nM, 10 nM and 66.
In the case of `Nc1nc2c(sc(=O)n2CCN2CCN(c3ccc(O[C@@H]4CNC[C@H]4F)cc3F)CC2)c2nc(-c3ccco3)nn12` [Compound 101, 5-amino-3-(2-(4-(2-fluoro-4-(((3R,4R)-4-fluoropyrrolidin-3-yl)oxy)phenyl)piperazin-1-yl)ethyl)-8-(furan-2-yl)thiazolo[5,4-e][1,2,4]triazolo[1,5-c]pyrimidin-2(3H)-one], the IC50 at A2A receptor (setting [1]) is 0.7 nM; on A2A receptor (setting [2]), 124 nM. Also, the efflux ratio at 120 min, 2 μM in the data set “in vitro” stood at 81.
The matching figures for `Nc1nc2c(sc(=O)n2CCN2CCN(c3ccc(O[C@H]4CNC[C@@H]4F)cc3F)CC2)c2nc(-c3ccco3)nn12` [Compound 102, 5-amino-3-(2-(4-(2-fluoro-4-(((3S,4S)-4-fluoropyrrolidin-3-yl)oxy)phenyl)piperazin-1-yl)ethyl)-8-(furan-2-yl)thiazolo[5,4-e][1,2,4]triazolo[1,5-c]pyrimidin-2(3H)-one]: 0.7 nM, 185 nM and 91.
Take `Nc1nc2c(sc(=O)n2CCN2CCN(c3ccc(O[C@@H]4CNC[C@@H]4F)cc3F)CC2)c2nc(-c3ccco3)nn12` [Compound 103, 5-amino-3-(2-(4-(2-fluoro-4-(((3R,4S)-4-fluoropyrrolidin-3-yl)oxy)phenyl)piperazin-1-yl)ethyl)-8-(furan-2-yl)thiazolo[5,4-e][1,2,4]triazolo[1,5-c]pyrimidin-2(3H)-one]: on A2A receptor (setting [1]), the IC50 is 1.1 nM. Further, in the data set “in vitro”, the efflux ratio at 120 min, 2 μM is 20.
As to `Nc1nc2c(sc(=O)n2CCN2CCN(c3ccc(O[C@H]4CNC[C@H]4F)cc3F)CC2)c2nc(-c3ccco3)nn12` [Compound 104, 5-amino-3-(2-(4-(2-fluoro-4-(((3S,4R)-4-fluoropyrrolidin-3-yl)oxy)phenyl)piperazin-1-yl)ethyl)-8-(furan-2-yl)thiazolo[5,4-e][1,2,4]triazolo[1,5-c]pyrimidin-2(3H)-one], the values for the IC50 on A2A receptor (setting [1]) and at A2A receptor (setting [2]) were 0.5 nM and 45 nM, respectively. Further, the efflux ratio at 120 min, 2 μM in the data set “in vitro” is 20.
The matching figures for `Nc1nc2c(sc(=O)n2CCN2CCN(c3ccc(C(=O)NCC4COCCN4)cc3F)CC2)c2nc(-c3ccco3)nn12` (centres unmarked) [Compound 107, 4-(4-(2-(5-amino-8-(furan-2-yl)-2-oxothiazolo[5,4-e][1,2,4]triazolo[1,5-c]pyrimidin-3(2H)-yl)ethyl)piperazin-1-yl)-3-fluoro-N-(morpholin-3-ylmethyl)benzamide]: 0.1 nM, 35 nM and 680.
